Test results reported in patent US11472803B2, “7-substituted 1-aryl-naphthyridine-3-carboxylic acid amides and use thereof” (Bayer Aktiengesellschaft, priority 2016, dated 2022).

Molecular target: T1, human M2 receptor (Homo sapiens, UniProt P08172)
T1 construct: expressed in transfected cells; host or cells: CHO-DUKX (CHO-DUKX-M2-GIRK)
T1 sequence (P08172 1-466): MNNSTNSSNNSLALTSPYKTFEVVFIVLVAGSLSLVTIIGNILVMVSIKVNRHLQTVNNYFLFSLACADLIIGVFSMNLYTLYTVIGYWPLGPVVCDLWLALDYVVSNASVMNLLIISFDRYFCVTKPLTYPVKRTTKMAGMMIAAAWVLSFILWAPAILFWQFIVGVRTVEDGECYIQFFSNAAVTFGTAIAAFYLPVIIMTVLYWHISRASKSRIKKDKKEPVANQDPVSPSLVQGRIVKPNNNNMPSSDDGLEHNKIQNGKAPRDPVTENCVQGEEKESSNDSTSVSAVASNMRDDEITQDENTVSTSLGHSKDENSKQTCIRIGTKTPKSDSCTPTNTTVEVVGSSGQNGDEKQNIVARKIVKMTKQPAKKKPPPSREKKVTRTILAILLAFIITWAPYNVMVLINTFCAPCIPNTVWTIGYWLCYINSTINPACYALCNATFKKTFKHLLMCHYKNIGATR
Experiment: Functional M2-GIRK1/4 activation test: allosteric potency (EC50) and efficiency at EC20 acetylcholine
Assay type: cell-based
Details: CHO-DUKX-M2-GIRK cells; for EC50: voltage-sensitive dye, acetylcholine at EC20, in some cases mean of two or more determinations; for Emax / Efficiency: boosting of the acetylcholine effect at EC20 acetylcholine concentration
Method in brief: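 Positive allosteric modulation measured as boosting of an EC20 acetylcholine response: hyperpolarization via GIRK1/4 in CHO-DUKX-M2-GIRK cells, monitored by membrane-potential dye fluorescence over 60 s after agonist, compound preadded. Hill-function fit gives EC50 and efficiency.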

| Structure (SMILES) | EC50 | Emax | Efficiency |
| --- | --- | --- | --- |
| CCC(NC(=O)c1cn(-c2c(F)cc(F)cc2F)c2nc(N3C[C@@H](O)[C@@H](O)C3)c(F)cc2c1=O)C(C)C (mixture of isomers) [Example 104, 7-[(3R,4S)-3,4-Dihydroxypyrrolidin-1-yl]-6-fluoro-N-[2-methylpentan-3-yl]-6-fluoro-4-oxo-1-(2,4,6-trifluorophenyl)-1,4-dihydro-1,8-naphthyridine-3-carboxamide] | 13 nM | 97% |  |
| C[C@@H](NC(=O)c1cn(-c2c(F)cc(F)cc2Cl)c2nc(N3C[C@@H](O)[C@H](O)C3)c(F)cc2c1=O)C1CC1 [Example 44, 1-(2-chloro-4,6-difluorophenyl)-N-[(1R)-1-cyclopropylethyl]-7-[(3R,4R)-3,4-dihydroxypyrrolidin-1-yl]-6-fluoro-4-oxo-1,4-dihydro-1,8-naphthyridine-3-carboxamide] | 12 nM | 100% |  |
| CC(NC(=O)c1cn(-c2c(F)cc(F)cc2F)c2nc(N3C[C@@H](O)[C@@H](O)C3)c(F)cc2c1=O)C(F)(F)C(F)(F)F (mixture of isomers) [Example 92, 7-[(3R,4S)-3,4-Dihydroxypyrrolidin-1-yl]-6-fluoro-4-oxo-N-[3,3,4,4,4-pentafluorobutan-2-yl]-1-(2,4,6-trifluorophenyl)-1,4-dihydro-1,8-naphthyridine-3-carboxamide] |  | 100% |  |
| CC(C)(NC(=O)c1cn(-c2c(F)cc(F)cc2Cl)c2nc(N3C[C@@H](O)[C@H](O)C3)c(F)cc2c1=O)C(F)(F)F (single isomer, unassigned) [Example 49] | 68 nM | 74% |  |
| CCC(C)(C)NC(=O)c1cn(-c2ncc(F)cc2F)c2nc(N3C[C@@H](O)[C@H](O)C3)c(F)cc2c1=O [Example 75, 1-(3,5-Difluoropyridin-2-yl)-7-[(3R,4R)-3,4-dihydroxypyrrolidin-1-yl]-6-fluoro-N-(2-methyl-butan-2-yl)-4-oxo-1,4-dihydro-1,8-naphthyridine-3-carboxamide] | 87 nM | 100% |  |
| CC(C)C(NC(=O)c1cn(-c2c(F)cc(F)cc2F)c2nc(N3C[C@@H](O)[C@@H](O)C3)c(F)cc2c1=O)C(F)(F)F (mixture of isomers) [Example 123, 7-[(3R,4S)-3,4-Dihydroxypyrrolidin-1-yl]-6-fluoro-4-oxo-N-[1,1,1-trifluoro-3-methylbutan-2-yl]-1-(2,4,6-trifluorophenyl)-1,4-dihydro-1,8-naphthyridine-3-carboxamide] | 3.1 nM | 100% |  |
| CC(NC(=O)c1cn(-c2c(F)cc(F)cc2F)c2nc(N3CCC(O)C(O)C3)c(F)cc2c1=O)C(F)(F)C(F)(F)F (stereo not drawn) [Example 181, 7-(3,4-Dihydroxypiperidin-1-yl)-6-fluoro-4-oxo-N-(3,3,4,4,4-pentafluorobutan-2-yl)-1-(2,4,6-trifluorophenyl)-1,4-dihydro-1,8-naphthyridine-3-carboxamide] | 13 nM | 83% |  |
| O=C(NCc1c(Cl)cccc1Cl)c1cn(-c2c(F)cc(F)cc2F)c2nc(N3C[C@@H](O)[C@H](O)C3)c(F)cc2c1=O [Example 132, N-(2,6-Dichlorobenzyl)-7-[(3R,4R)-3,4-dihydroxypyrrolidin-1-yl]-6-fluoro-4-oxo-1-(2,4,6-tri-fluorophenyl)-1,4-dihydro-1,8-naphthyridine-3-carboxamide] | 10 nM | 99% |  |
| C[C@H](NC(=O)c1cn(-c2c(F)cc(F)cc2Cl)c2nc(N3C[C@@H](O)[C@H](O)C3)c(F)cc2c1=O)C(F)(F)F (single isomer, unassigned) [Example 225] | 110 nM | 82% |  |
| CC[C@H](NC(=O)c1cn(-c2c(F)cccc2F)c2nc(N3C[C@@H](O)[C@H](O)C3)c(F)cc2c1=O)C(F)(F)F [Example 3, 1-(2,6-Difluorophenyl)-7-[(3R,4R)-3,4-dihydroxypyrrolidin-1-yl]-6-fluoro-4-oxo-N-[(2S)-1,1,1-trifluorobutan-2-yl]-1,4-dihydro-1,8-naphthyridine-3-carboxamide] | 38 nM | 97% |  |
| C[C@H](NC(=O)c1cn(-c2c(F)cc(F)cc2Cl)c2nc(N3C[C@@H](O)[C@H](O)C3)c(F)cc2c1=O)C(F)(F)F [Example 224, 1-(2-Chloro-4,6-difluorophenyl)-7-[(3R,4R)-3,4-dihydroxypyrrolidin-1-yl]-6-fluoro-4-oxo-N-[(2S)-1,1,1-trifluoropropan-2-yl]-1,4-dihydro-1,8-naphthyridine-3-carboxamide] | 10 nM | 96% |  |
| CCC(NC(=O)c1cn(-c2c(F)cc(F)cc2F)c2nc(N3C[C@@H](O)[C@@H](O)C3)c(F)cc2c1=O)C(C)C (stereo partly drawn) [Example 105, 7-[(3R,4S)-3,4-Dihydroxypyrrolidin-1-yl]-6-fluoro-V-[2-methylpentan-3-yl]-6-fluoro-4-oxo-1-(2,4,6-trifluorophenyl)-1,4-dihydro-1,8-naphthyridine-3-carboxamide] | 7.5 nM |  | 97% |
| C[C@H](NC(=O)c1cn(-c2c(F)cc(F)cc2F)c2nc(N3C[C@@H](O)[C@H](O)C3)c(F)cc2c1=O)c1ccccc1 [Example 167, 7-[(3R,4R)-3,4-Dihydroxypyrrolidin-1-yl]-6-fluoro-4-oxo-N-[(1S)-1-phenylethyl]-1-(2,4,6-tri-fluorophenyl)-1,4-dihydro-1,8-naphthyridine-3-carboxamide] | 7.4 nM | 95% |  |
| CC(C)(CC(F)(F)F)NC(=O)c1cn(-c2c(F)cc(F)cc2F)c2nc(N3C[C@@H](O)[C@@H](O)C3)c(F)cc2c1=O [Example 91, 7-[(3R,4S)-3,4-Dihydroxypyrrolidin-1-yl]-6-fluoro-4-oxo-N-(4,4,4-trifluoro-2-methylbutan-2-yl)-1-(2,4,6-trifluorophenyl)-1,4-dihydro-1,8-naphthyridine-3-carboxamide] | 6.5 nM | 100% |  |
| CCC(C)(C)NC(=O)c1cn(-c2c(F)cc(F)cc2F)c2nc(N(C)C)c(F)cc2c1=O [Example 61, 7-(Dimethylamino)-6-fluoro-N-(2-methylbutan-2-yl)-4-oxo-1-(2,4,6-trifluorophenyl)-1,4-dihydro-1,8-naphthyridine-3-carboxamide] | 2.2 nM | 94% |  |
| O=C(N[C@@H](C1CC1)C(F)(F)F)c1cn(-c2c(F)cc(F)cc2Cl)c2nc(N3C[C@@H](O)[C@H](O)C3)c(F)cc2c1=O [Example 42, 1-(2-chloro-4,6-difluorophenyl)-N-[(1S)-1-cyclopropyl-2,2,2-trifluoroethyl]-7-[(3R,4R)-3,4-dihydroxypyrrolidin-1-yl]-6-fluoro-4-oxo-1,4-dihydro-1,8-naphthyridine-3-carboxamide] | 4 nM | 100% |  |
| O=C(Nc1c(Cl)cccc1Cl)c1cn(-c2c(F)cc(F)cc2F)c2nc(N3C[C@@H](O)[C@H](O)C3)c(F)cc2c1=O [Example 130, N-(2,6-Dichlorophenyl)-7-[(3R,4R)-3,4-dihydroxypyrrolidin-1-yl]-6-fluoro-4-oxo-1-(2,4,6-trifluorophenyl)-1,4-dihydro-1,8-naphthyridine-3-carboxamide] | 2.3 nM | 96% |  |
| CC(C)(C)OC(=O)N1CCC(NC(=O)c2cn(-c3c(F)cc(F)cc3F)c3nc(N4C[C@@H](O)[C@H](O)C4)c(F)cc3c2=O)C(F)(F)C1 (stereo partly drawn) [Example 85, tert-Butyl 4-[({7-[(3R,4R)-3,4-dihydroxypyrrolidin-1-yl]-6-fluoro-4-oxo-1-(2,4,6-trifluoro-phenyl)-1,4-dihydro-1,8-naphthyridin-3-yl}carbonyl)amino]-3,3-difluoropiperidine-1-carboxylate] | 33 nM | 100% |  |
| C[C@@H](NC(=O)c1cn(-c2c(F)cc(F)cc2Cl)c2nc(N3C[C@@H](O)[C@H](O)C3)c(F)cc2c1=O)C(F)(F)F (single isomer, unassigned) [Example 229] | 260 nM |  | 67% |
| CC(C)C(NC(=O)c1cn(-c2c(F)cc(F)cc2F)c2nc(N3CC[C@H](O)C3)c(F)cc2c1=O)C(F)(F)F (single isomer, unassigned) [Example 140] | 5.3 nM |  | 95% |
| O=C(NC(C(F)(F)F)C(F)(F)F)c1cn(-c2ncc(F)cc2F)c2nc(N3CCC(O)(CO)CC3)c(F)cc2c1=O [Example 198, 1-(3,5-Difluoropyridin-2-yl)-6-fluoro-N-(1,1,1,3,3,3-hexafluoropropan-2-yl)-7-[4-hydroxy-4-(hydroxymethyl)piperidin-1-yl]-4-oxo-1,4-dihydro-1,8-naphthyridine-3-carboxamide] | 33 nM | 100% |  |
| CC(C)C(NC(=O)c1cn(-c2c(F)cc(F)cc2F)c2nc(N3CC[C@H](O)C3)c(F)cc2c1=O)C(F)(F)F (mixture of isomers) [Example 126, 6-Fluoro-7-[(3S)-3-hydroxypyrrolidin-1-yl]-4-oxo-N-[1,1,1-trifluoro-3-methylbutan-2-yl]-1-(2,4,6-trifluorophenyl)-1,4-dihydro-1,8-naphthyridine-3-carboxamide] | 3.9 nM | 97% |  |
| CC[C@H](NC(=O)c1cn(-c2c(F)cc(F)cc2Cl)c2nc(N3C[C@@H](O)[C@H](O)C3)c(F)cc2c1=O)C(F)(F)F (single isomer, unassigned) [Example 47] | 48 nM | 81% |  |
